We go through 24 molecules from PubChem BioAssay AID330 (DTP/NCI, 2004).

“And” between values parts separate entries of the source, which are not always exact repeats. Identical values can stand only once. Inconclusive results and toxic doses are left out.

The test system of the experiment is P388 leukemia ip, CD2F1 mice, survival T/C. Put plainly: NCI In Vivo Anticancer Drug Screen. Data for tumor model P388 Leukemia (intraperitoneal) in CD2F1 (CDF1) mice. The conditions noted are these: endpoint: median survival time, higher = longer survival. Summed up: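 Mice carrying the transplanted tumor received test compound or vehicle. Survival was recorded in each group, and the value is the treated-group measurement divided by that of the vehicle-treated control group.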

[1] abbreviates: dose: 50.0 mg/kg/injection, schedule: Q01DX009 (ip), vehicle: Klucel (hydroxypropylcellulose) (HPC).
Setting [2] is: dose: 60.0 mg/kg/injection, schedule: Q01DX005 (ip), vehicle: saline with Tween-80.
The mark [3] stands for this setting: dose: 120.0 mg/kg/injection, schedule: Q01DX005 (ip), vehicle: saline with Tween-80.
Setting [4] is: dose: 240.0 mg/kg/injection, schedule: Q01DX005 (ip), vehicle: saline with Tween-80.
Setting [5] is: dose: 50.0 mg/kg/injection, schedule: Q01DX009 (ip), vehicle: saline.
[6] abbreviates: dose: 50.0 mg/kg/injection, schedule: Q01DX005 (ip), vehicle: saline with Tween-80.
[7] abbreviates: dose: 100.0 mg/kg/injection, schedule: Q01DX005 (ip), vehicle: saline with Tween-80.
The mark [8] stands for this setting: dose: 200.0 mg/kg/injection, schedule: Q01DX005 (ip), vehicle: saline with Tween-80.
Where [9] appears, read: dose: 25.0 mg/kg/injection, schedule: Q01DX009 (ip), vehicle: saline.

Regarding `CCCC/C=C/C=C/C=C/CCCCCCCC(=O)OC(COC(=O)CCCCCCC/C=C/C1C=CC(CCCC)C(C(=O)O)C1C(=O)O)COC(=O)CCCCCCC/C=C/C1C=CC(CCCC)C(C(=O)O)C1C(=O)O` (centres undefined), the T/C was 101 % of control under setting [1]; 111 % of control (dose: 100.0 mg/kg/injection, schedule: Q01DX009 (ip), vehicle: Klucel (hydroxypropylcellulose) (HPC)); 108 % of control (dose: 200.0 mg/kg/injection, schedule: Q01DX009 (ip), vehicle: Klucel (hydroxypropylcellulose) (HPC)).

Consider `CC(=O)OCC1OC(n2cnc3c(=O)n(S(=O)(=O)c4ccc(C)cc4)cnc32)C(OC(C)=O)C1OC(C)=O` (centres undefined), for which the T/C was 103 % of control under setting [2], 106 % of control under setting [3] and 100 % of control under setting [4].

As for `c1ccc(CCC(Cc2cccnc2)c2ccccn2)nc1` (centres undefined), the T/C reads like this: (dose: 100.0 mg/kg/injection, schedule: Q04DX002 (ip), vehicle: saline) 95 % of control; (dose: 200.0 mg/kg/injection, schedule: Q04DX002 (ip), vehicle: saline) 104 % of control.

For `NCCc1cc(O)c(O)c(O)c1`, the T/C under setting [5] was 108 % of control and 109 % of control; the T/C (dose: 100.0 mg/kg/injection, schedule: Q01DX009 (ip), vehicle: saline) was 117 % of control; the T/C (dose: 400.0 mg/kg/injection, schedule: Q01DX009 (ip), vehicle: saline) is 153 % of control and 168 % of control.

As to `Cc1ccc(S(=O)(=O)OCC2COC(C(C)C)OC2)cc1` (centres undefined), the T/C under setting [2] was 99 % of control, the T/C under setting [3] is 90 % of control and the T/C under setting [4] was 90 % of control.

In the case of `O=C1OCC(c2ccccc2)(c2ccccc2)C(=O)N1O`, the T/C under setting [6] was 98 % of control, the T/C under setting [7] is 103 % of control and the T/C under setting [8] is 91 % of control.

For the molecule `O=C1NC(=O)C(=C2C(=O)COC2=O)C(=O)N1`, the T/C (dose: 60.0 mg/kg/injection, schedule: Q01DX005 (ip), vehicle: saline) is 103 % of control; the T/C (dose: 120.0 mg/kg/injection, schedule: Q01DX005 (ip), vehicle: saline) is 106 % of control; the T/C (dose: 240.0 mg/kg/injection, schedule: Q01DX005 (ip), vehicle: saline) is 104 % of control.

`CS(=O)(=O)Oc1ccc2c(c1)CCC2`: the T/C was 99 % of control (dose: 50.0 mg/kg/injection, schedule: Q04DX003 (ip), vehicle: saline); 101 % of control (dose: 100.0 mg/kg/injection, schedule: Q04DX003 (ip), vehicle: saline); 108 % of control (dose: 200.0 mg/kg/injection, schedule: Q04DX003 (ip), vehicle: saline); 102 % of control (dose: 400.0 mg/kg/injection, schedule: Q04DX003 (ip), vehicle: saline).

For `COc1cc(C=Nc2cccc(C(=O)O)c2)ccc1N(CCCl)CCCl`, the T/C runs as follows: under setting [9], 122 % of control; (dose: 50.0 mg/kg/injection, schedule: Q04DX003 (ip), vehicle: saline with Tween-80) 150 % of control; (dose: 66.0 mg/kg/injection, schedule: Q04DX003 (ip), vehicle: saline with Tween-80) 272 % of control; (dose: 100.0 mg/kg/injection, schedule: Q04DX003 (ip), vehicle: saline with Tween-80) 181 % of control.

On to `C=C1CN(CCc2ccccc2)C(=S)S1`, for which the T/C was 101 % of control under setting [2], 102 % of control under setting [3] and 102 % of control under setting [4].

For the molecule `CN(C(=O)Nc1cccc2c(NC(=O)N(C)C3CCCCC3)cccc12)C1CCCCC1`, the T/C under setting [2] was 93 % of control, the T/C under setting [3] was 87 % of control and the T/C under setting [4] is 90 % of control.

With `COc1cc(CN2CCCCC2)cc2cc(C(=O)O)c(=O)oc12`, the T/C is, setting by setting: under setting [6], 103 % of control; under setting [7], 101 % of control; under setting [8], 100 % of control.

Regarding `CCNC(C)(C)C(SSSC(c1ccc(Cl)cc1)C(C)(C)NCC)c1ccc(Cl)cc1` (centres undefined), the T/C (dose: 6.25 mg/kg/injection, schedule: Q01DX009 (ip), vehicle: saline) was 109 % of control; the T/C (dose: 12.5 mg/kg/injection, schedule: Q01DX009 (ip), vehicle: saline) is 115 % of control; the T/C under setting [9] is 105 % of control; the T/C under setting [5] is 101 % of control.

For `C=C1C(=O)CC2C3C1C2(C)CCC(OC(C)=O)C3(C)C` (centres undefined), the T/C is 93 % of control (dose: 5.5 mg/kg/injection, schedule: Q01DX005 (ip), vehicle: Klucel (hydroxypropylcellulose) (HPC)); 93 % of control (dose: 11.0 mg/kg/injection, schedule: Q01DX005 (ip), vehicle: Klucel (hydroxypropylcellulose) (HPC)); 100 % of control (dose: 22.0 mg/kg/injection, schedule: Q01DX005 (ip), vehicle: Klucel (hydroxypropylcellulose) (HPC)); 103 % of control (dose: 44.0 mg/kg/injection, schedule: Q01DX005 (ip), vehicle: Klucel (hydroxypropylcellulose) (HPC)).

`COC1OC(CS[As](C)C)C(O)C(O)C1O` (centres undefined): the T/C runs as follows: (dose: 6.25 mg/kg/injection, schedule: Q01DX009 (ip), vehicle: Klucel (hydroxypropylcellulose) (HPC)) 95 % of control; (dose: 12.5 mg/kg/injection, schedule: Q01DX009 (ip), vehicle: Klucel (hydroxypropylcellulose) (HPC)) 100 % of control; (dose: 25.0 mg/kg/injection, schedule: Q01DX009 (ip), vehicle: Klucel (hydroxypropylcellulose) (HPC)) 103 % of control; under setting [1], 106 % of control.

For `Cc1ccc(C2SCC(=O)N2CCN2C(=O)CSC2c2ccc(C)s2)s1` (centres undefined), the T/C is, setting by setting: under setting [6], 101 % of control; under setting [7], 109 % of control; under setting [8], 100 % of control.

For the molecule `N#CC(C(=O)CCCC(=O)Nc1cccc([N+](=O)[O-])c1)c1cccc2ccccc12` (centres undefined), the T/C is, setting by setting: under setting [2], 104 % of control; under setting [3], 108 % of control; under setting [4], 101 % of control.

Consider `COC1OC2COC(c3ccc(Cl)cc3)OC2C2OC12` (centres undefined), for which the T/C (dose: 7.5 mg/kg/injection, schedule: Q04DX002 (ip), vehicle: saline with Tween-80) was 102 % of control; the T/C (dose: 15.0 mg/kg/injection, schedule: Q04DX002 (ip), vehicle: saline with Tween-80) was 101 % of control; the T/C (dose: 30.0 mg/kg/injection, schedule: Q04DX002 (ip), vehicle: saline with Tween-80) was 102 % of control.

`CC(C)(C)CC(C)(C)c1ccc(OCc2ccc(Cl)cc2)cc1`: the T/C is, setting by setting: (dose: 50.0 mg/kg/injection, schedule: Q01DX009 (ip), vehicle: saline with Tween-80) 100 % of control; (dose: 100.0 mg/kg/injection, schedule: Q01DX009 (ip), vehicle: saline with Tween-80) 100 % of control; (dose: 200.0 mg/kg/injection, schedule: Q01DX009 (ip), vehicle: saline with Tween-80) 98 % of control.

As to `CC1(C)COC2(C)ON12` (centres undefined), the T/C is 106 % of control under setting [6], 117 % of control under setting [7] and 113 % of control under setting [8].

On to `Fc1cccc2c(C#Cc3ccccc3)c3ccccc3c(C#Cc3ccccc3)c12`, for which the T/C is, setting by setting: (dose: 1.5 mg/kg/injection, schedule: Q01DX005 (ip), vehicle: saline with Tween-80) 100 % of control; (dose: 3.0 mg/kg/injection, schedule: Q01DX005 (ip), vehicle: saline with Tween-80) 100 % of control; (dose: 6.0 mg/kg/injection, schedule: Q01DX005 (ip), vehicle: saline with Tween-80) 97 % of control; (dose: 25.0 mg/kg/injection, schedule: Q01DX005 (ip), vehicle: saline with Tween-80) 92 % of control; under setting [7], 94 % of control; under setting [8], 87 % of control.

In the case of `N=Nc1c(OC(=O)Nc2ccccc2)[nH]c2ccccc12`, the T/C reads like this: (dose: 50.0 mg/kg/injection, schedule: Q01DX005 (ip), vehicle: Klucel (hydroxypropylcellulose) (HPC)) 90 % of control; (dose: 100.0 mg/kg/injection, schedule: Q01DX005 (ip), vehicle: Klucel (hydroxypropylcellulose) (HPC)) 90 % of control; (dose: 200.0 mg/kg/injection, schedule: Q01DX005 (ip), vehicle: Klucel (hydroxypropylcellulose) (HPC)) 87 % of control.

On to `Nc1ncc(S(=O)(=O)c2ccc([N+](=O)[O-])cc2)c(N)n1`, for which the T/C (dose: 75.0 mg/kg/injection, schedule: Q01DX009 (ip), vehicle: suspension in saline) was 96 % of control; the T/C (dose: 150.0 mg/kg/injection, schedule: Q01DX009 (ip), vehicle: suspension in saline) is 98 % of control; the T/C (dose: 300.0 mg/kg/injection, schedule: Q01DX009 (ip), vehicle: suspension in saline) was 92 % of control.

For `O=C(NC(=O)c1c(F)cccc1F)Nc1cccc(Oc2ncc(Cl)cn2)c1`, the T/C by setting is: (dose: 15.0 mg/kg/injection, schedule: Q01DX005 (ip), vehicle: saline with Tween-80) 111 % of control; (dose: 30.0 mg/kg/injection, schedule: Q01DX005 (ip), vehicle: saline with Tween-80) 96 % of control; under setting [2], 94 % of control and 95 % of control.
